# Results: patent US20240350430A1, “GROWTH INHIBITOR OF METASTATIC HUMAN PROSTATE CANCER CELLS” (Watanabe Oyster Laboratory Co., Ltd., priority 2021, published 2024)
# Tests used:
# DU-145 cells = assay: Cell death of sub-confluent DU-145 cells (adherent cell counting); assay type: cell-based, human
# Experimental: The PC-3 and DU-145 cells (1×10^5/in 1 ml of a culture fluid per hole using a 24-hole plate) were cultured in a DMEM culture fluid (containing 10% of FBS, 1% of P/S, and 1% of fungizone) under 5% of CO2, at 37° C., for three days, and when the cells reached sub-confluence, the culture fluid was exchanged for the one containing the DHMBA (0.01, 0.1, 1, 10, 100, or 1000 μM), and the cells were cultured for 24 and 48 hours. After the culture, the cells adhering to the bottom surface of the dish were removed and counted. In another experiment, after the culture for three days, when the cells reached sub-confluence, the culture fluid was exchanged for a culture fluid containing the DHMBA (1 or 10 μM) and a caspase-3 inhibitor (10 μM), and the cells were counted after the culture for 48 hours. Further, after the culture for three days, when the cells reached sub-confluence, the culture fluid was exchanged for a culture fluid obtained by adding gemcitabine (0.1, 1, 10, 50 or 100 nM) or CH223191 (1, 10, and 25 μM) to a DMEM culture fluid containing the DHMBA (1 or 10 μM) or not containing the DHMBA, and the cells were counted after the culture for 48 hours. […]
# PC-3 cells = assay: Cell invasion, Transwell chambers with Matrigel, PC-3 cells; assay type: cell-based, human; conditions: DHMBA 1, 10, or 100 μM, 24 hours
# Experimental: The cell invasion activity of the prostate cancer PC-3 and DU-145 cells was measured using Transwell chambers (the catalogue number CLS3464-48EA of Corning, Life Sciences, USA). A chamber was placed in each well of the 24-hole plate. 50 μl of Matrigel (Corning Life Sciences, Cat. No. 356230, USA) was added to the upper surface of the chambers. After drying the gel, 500 μl of a suspension of the PC-3 or DU-145 cells (the cell number of 2.5×10^4/ml, the DMEM not containing FBS) was added to the upper surface of the gel. This cell suspension contained the DHMBA (0, 1, 10, or 100 μM). After the addition of the cell suspension to the chambers, it was incubated for one hour to cause the cells to adhere. 0.75 ml of the culture fluid not containing the FBS and a culture fluid containing 10% of FBS were added to the lower surface of the chambers. The cells on the plate were cultured under 5% of CO2, 95% of air, at 37° C., for 24 hours. […] After the drying, the number of the stained cells was counted by the microscope (Olympus MTV-3, Olympus Corporation, Tokyo, Japan). […]
# The cell invasion activities of the prostate cancer PC-3 and DU-145 cells were measured using the Transwell chambers. […] After the drying, the number of the stained cells was counted by the microscope (Olympus MTV-3, Olympus Corporation, Tokyo, Japan). […]
smiles,measurement,setting,value
"COc1c(O)cc(CO)cc1O [DHMBA, 3,5-dihydroxy-4-methoxybenzyl alcohol]",cell death,"DU-145 cells; DHMBA 1, 10, 100, or 1000 μM, 24 and 48 hours",significantly increased
same,increase of cell death in the presence of caspase-3 inhibitor,"DU-145 cells; DHMBA 1 or 10 μM with caspase-3 inhibitor 10 μM, 48 hours",not caused
same,invasion,PC-3 cells,significantly inhibited
